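Protocol summary: plate cells (96-well), add compound at 5 concentrations, incubate 48 h, interpolate endpoints linearly. GI50 marks 50% less growth. TGI: total growth inhibition.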
Key:
Assay in all cases: DTP human tumour cell line panel, 48 h
HCT-15 colon = tested on: HCT-15 colon
HL-60(TB) leukemia = tested on: HL-60(TB) leukemia
A549 NSCLC = tested on: A549 NSCLC
SK-MEL-2 melanoma = tested on: SK-MEL-2 melanoma
OVCAR-5 ovarian = tested on: OVCAR-5 ovarian
M14 melanoma = tested on: M14 melanoma
OVCAR-3 ovarian = tested on: OVCAR-3 ovarian
PC-3 prostate = tested on: PC-3 prostate
HT29 colon = tested on: HT29 colon
NCI/ADR-RES ovarian = tested on: NCI/ADR-RES ovarian
SK-MEL-28 melanoma = tested on: SK-MEL-28 melanoma
U251 CNS = tested on: U251 CNS
MALME-3M melanoma = tested on: MALME-3M melanoma
MCF7 breast = tested on: MCF7 breast
SF-268 CNS = tested on: SF-268 CNS
786-0 renal = tested on: 786-0 renal
HCT-116 colon = tested on: HCT-116 colon
KM12 colon = tested on: KM12 colon
NCI-H226 lung = tested on: NCI-H226 lung
SW-620 colon = tested on: SW-620 colon
OVCAR-8 ovarian = tested on: OVCAR-8 ovarian
NCI-H23 lung = tested on: NCI-H23 lung
K-562 leukemia = tested on: K-562 leukemia
SN12C renal = tested on: SN12C renal
HS 578T breast = tested on: HS 578T breast
SK-MEL-5 melanoma = tested on: SK-MEL-5 melanoma
SNB-75 CNS = tested on: SNB-75 CNS
NCI-H522 lung = tested on: NCI-H522 lung
TK-10 renal = tested on: TK-10 renal
UO-31 renal = tested on: UO-31 renal
CAKI-1 renal = tested on: CAKI-1 renal
UACC-257 melanoma = tested on: UACC-257 melanoma
CCRF-CEM leukemia = tested on: CCRF-CEM leukemia
COLO 205 colon = tested on: COLO 205 colon
MDA-MB-435 = tested on: MDA-MB-435
HOP-62 NSCLC = tested on: HOP-62 NSCLC
LOX IMVI melanoma = tested on: LOX IMVI melanoma
HOP-92 NSCLC = tested on: HOP-92 NSCLC
SF-295 CNS = tested on: SF-295 CNS
SF-539 CNS = tested on: SF-539 CNS
IGROV1 ovarian = tested on: IGROV1 ovarian
T-47D breast = tested on: T-47D breast
MOLT-4 leukemia = tested on: MOLT-4 leukemia
RXF 393 renal = tested on: RXF 393 renal
ACHN renal = tested on: ACHN renal
MDA-MB-231 breast = tested on: MDA-MB-231 breast
A498 renal = tested on: A498 renal
RPMI-8226 leukemia = tested on: RPMI-8226 leukemia
EKVX NSCLC = tested on: EKVX NSCLC
SR leukemia = tested on: SR leukemia
HCC-2998 colon = tested on: HCC-2998 colon
UACC-62 melanoma = tested on: UACC-62 melanoma
DU-145 prostate = tested on: DU-145 prostate
NCI-H460 lung = tested on: NCI-H460 lung
OVCAR-4 ovarian = tested on: OVCAR-4 ovarian
SNB-19 CNS = tested on: SNB-19 CNS
SK-OV-3 ovarian = tested on: SK-OV-3 ovarian

## CCCCCCNCc1cc(C(C)(C)C)cc(CNCCCCCC)c1O
HCT-15 colon
  GI50: 1630 nM
  TGI: 3.1 µM
HL-60(TB) leukemia
  GI50: 1680 nM
  TGI: 3.33 µM
A549 NSCLC
  GI50: 1710 nM
  TGI: 3.08 µM
SK-MEL-2 melanoma
  GI50: 1980 nM
  TGI: 3.52 µM
OVCAR-5 ovarian
  GI50: 1540 nM
  TGI: 2880 nM
M14 melanoma
  GI50: 1750 nM
  TGI: 3.18 µM
OVCAR-3 ovarian
  GI50: 1730 nM
  TGI: 3.15 µM
PC-3 prostate
  GI50: 1530 nM
  TGI: 2900 nM
HT29 colon
  GI50: 1750 nM
  TGI: 3.24 µM
NCI/ADR-RES ovarian
  GI50: 1750 nM
  TGI: 3.24 µM
SK-MEL-28 melanoma
  GI50: 1830 nM
  TGI: 3.27 µM
U251 CNS
  GI50: 1570 nM
  TGI: 2910 nM
MALME-3M melanoma
  GI50: 1740 nM
  TGI: 3.43 µM
MCF7 breast
  GI50: 1710 nM
  TGI: 3.17 µM
SF-268 CNS
  GI50: 1700 nM
  TGI: 3.32 µM
786-0 renal
  GI50: 1770 nM
  TGI: 3.26 µM
HCT-116 colon
  GI50: 1700 nM
  TGI: 3.07 µM
KM12 colon
  GI50: 1820 nM
  TGI: 3.3 µM
NCI-H226 lung
  GI50: 1690 nM
  TGI: 3.36 µM
SW-620 colon
  GI50: 1660 nM
  TGI: 3.1 µM
OVCAR-8 ovarian
  GI50: 1750 nM
  TGI: 3.37 µM
NCI-H23 lung
  GI50: 1710 nM
  TGI: 3.29 µM
K-562 leukemia
  GI50: 1300 nM
  TGI: 3.04 µM
SN12C renal
  GI50: 1700 nM
  TGI: 3.15 µM
HS 578T breast
  GI50: 1720 nM
  TGI: 4.03 µM
SK-MEL-5 melanoma
  GI50: 1650 nM
  TGI: 3.01 µM
SNB-75 CNS
  GI50: 1440 nM
  TGI: 2920 nM
NCI-H522 lung
  GI50: 1650 nM
  TGI: 3.13 µM
TK-10 renal
  GI50: 1860 nM
  TGI: 3.3 µM
UO-31 renal
  GI50: 1370 nM
  TGI: 2.8 µM
CAKI-1 renal
  GI50: 1690 nM
  TGI: 3.08 µM
UACC-257 melanoma
  GI50: 1670 nM
  TGI: 3.13 µM
CCRF-CEM leukemia
  GI50: 1690 nM
  TGI: 4.26 µM
COLO 205 colon
  GI50: 1670 nM
  TGI: 3.07 µM
MDA-MB-435
  GI50: 1610 nM
  TGI: 2980 nM
HOP-62 NSCLC
  GI50: 1580 nM
  TGI: 2930 nM
LOX IMVI melanoma
  GI50: 1580 nM
  TGI: 2940 nM
HOP-92 NSCLC
  GI50: 549 nM
  TGI: 2.04 µM
SF-295 CNS
  GI50: 1640 nM
  TGI: 3.16 µM
SF-539 CNS
  GI50: 1640 nM
  TGI: 3.09 µM
IGROV1 ovarian
  GI50: 1760 nM
  TGI: 3.36 µM
T-47D breast
  GI50: 1650 nM
  TGI: 3.29 µM
MOLT-4 leukemia
  GI50: 1840 nM
  TGI: 3.84 µM
RXF 393 renal
  GI50: 1620 nM
  TGI: 2990 nM
ACHN renal
  GI50: 1620 nM
  TGI: 2970 nM
MDA-MB-231 breast
  GI50: 1350 nM
  TGI: 2700 nM
A498 renal
  GI50: 2020 nM
  TGI: 3.47 µM
RPMI-8226 leukemia
  GI50: 1960 nM
  TGI: 4.05 µM
EKVX NSCLC
  GI50: 1550 nM
  TGI: 2960 nM
SR leukemia
  GI50: 1730 nM
  TGI: 3.86 µM
HCC-2998 colon
  GI50: 1620 nM
  TGI: 2990 nM
UACC-62 melanoma
  GI50: 1550 nM
  TGI: 2910 nM
DU-145 prostate
  GI50: 1800 nM
  TGI: 3.21 µM
NCI-H460 lung
  GI50: 1810 nM
  TGI: 3.34 µM
OVCAR-4 ovarian
  GI50: 1850 nM
  TGI: 3.47 µM
SNB-19 CNS
  GI50: 1760 nM
  TGI: 3.23 µM

## S=c1sc2c(Cl)nc(-c3cccnc3)nc2n1-c1ccccc1
A549 NSCLC
  GI50: > 100000 nM
  TGI: > 100 µM
OVCAR-5 ovarian
  GI50: > 100000 nM
  TGI: > 100000 nM
NCI/ADR-RES ovarian
  GI50: 3050 nM
  TGI: > 100 µM
SK-OV-3 ovarian
  GI50: > 100 µM
  TGI: > 100 µM
HS 578T breast
  GI50: 4090 nM
  TGI: > 100 µM
NCI-H522 lung
  GI50: 1540 nM
  TGI: 3.1 µM
TK-10 renal
  GI50: > 100000 nM
  TGI: > 100 µM
UO-31 renal
  GI50: 1640 nM
  TGI: 3.33 µM
CAKI-1 renal
  GI50: 1670 nM
  TGI: 3.14 µM
HOP-62 NSCLC
  GI50: 3270 nM
  TGI: > 100000 nM
HOP-92 NSCLC
  GI50: 3180 nM
  TGI: 30.5 µM
SF-295 CNS
  GI50: > 100000 nM
  TGI: > 100 µM
A498 renal
  GI50: > 100000 nM
  TGI: > 100 µM
SR leukemia
  GI50: 556 nM
  TGI: 4.68 µM
